Assay: Dissolution in Dowanol DPM under high shear
Format: physicochemical
Details: Dowanol DPM (dipropylene glycol methyl ether)

## COC(=O)c1ccccc1S(=O)(=O)NC(=O)Nc1nc(C)nc(OC)n1 [MSM, methsulfuron methyl]
  Dissolution in Dowanol DPM: did not dissolve
